In PMC10076258, “New carbohydrate binding domains identified by phage display based functional metagenomic screens of human gut microbiota” (Communications Biology, 2023):
Blank lines part the entries; values can stand above or below the molecule they belong to.

Columns and labels:
[1] = target: T1, MU1 (unidentified, UniProt Z9NE32H8P7); test: isothermal titration calorimetry; type: binding, Homo sapiens; settings: 20 mM HEPES, 150 mM NaCl, pH 7.5; sequential two-sites model, stronger site
T1 construct: metagenomic phage display insert in pET-28a(+) (NdeI/XhoI; forward primer in the T7 vector upstream of the insert), N-terminal His6 kept, E. coli BL21(DE3); monomer, ~39 kDa by SEC; GenBank entry within MN313892-MN313895, ON711254-ON711279, not assigned in text
T1 sequence (Z9NE32H8P7 1-238): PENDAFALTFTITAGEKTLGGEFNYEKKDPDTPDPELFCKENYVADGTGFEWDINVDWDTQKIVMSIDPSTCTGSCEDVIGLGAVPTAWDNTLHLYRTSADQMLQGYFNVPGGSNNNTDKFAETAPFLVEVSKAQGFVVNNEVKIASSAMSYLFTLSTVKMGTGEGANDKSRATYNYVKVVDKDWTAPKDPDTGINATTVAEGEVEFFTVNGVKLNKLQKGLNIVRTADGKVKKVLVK

[2] = target: T2, MN3 (unidentified, UniProt Z9ZPU1GRL3); test: isothermal titration calorimetry; type: binding, Homo sapiens; settings: 20 mM HEPES, 150 mM NaCl, pH 7.5; sequential two-sites model, stronger site
T2 construct: metagenomic phage display insert in pET-28a(+) (EcoRI/HindIII), N- and C-terminal His6 kept, E. coli BL21(DE3); monomer (~33 kDa) and dimer (~77 kDa); GenBank entry within MN313892-MN313895, ON711254-ON711279, not assigned in text
T2 sequence (Z9ZPU1GRL3 1-298): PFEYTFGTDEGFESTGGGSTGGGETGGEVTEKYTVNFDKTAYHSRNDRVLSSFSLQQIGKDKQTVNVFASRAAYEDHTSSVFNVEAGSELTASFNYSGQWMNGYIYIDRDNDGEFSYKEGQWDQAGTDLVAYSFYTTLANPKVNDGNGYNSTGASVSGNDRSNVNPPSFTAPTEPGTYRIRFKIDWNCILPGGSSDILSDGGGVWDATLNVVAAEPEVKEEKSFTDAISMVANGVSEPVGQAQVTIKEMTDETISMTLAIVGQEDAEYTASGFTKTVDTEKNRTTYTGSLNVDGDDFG

[3] = target: T3, Fetuin (UniProt P12763 19-359, sialylated); test: ITC; VP-ITC; protein in the sample cell, ligand titrated (20 or 35 injections at intervals of 180 s); buffer mostly 20 mM HEPES, 150 mM NaCl, pH 7.5; single run; settings: both partners purified
T3 construct: fetuin, a glycoprotein used as a glycan ligand in calorimetry; also called sialylated fetuin
T3 sequence (looked up): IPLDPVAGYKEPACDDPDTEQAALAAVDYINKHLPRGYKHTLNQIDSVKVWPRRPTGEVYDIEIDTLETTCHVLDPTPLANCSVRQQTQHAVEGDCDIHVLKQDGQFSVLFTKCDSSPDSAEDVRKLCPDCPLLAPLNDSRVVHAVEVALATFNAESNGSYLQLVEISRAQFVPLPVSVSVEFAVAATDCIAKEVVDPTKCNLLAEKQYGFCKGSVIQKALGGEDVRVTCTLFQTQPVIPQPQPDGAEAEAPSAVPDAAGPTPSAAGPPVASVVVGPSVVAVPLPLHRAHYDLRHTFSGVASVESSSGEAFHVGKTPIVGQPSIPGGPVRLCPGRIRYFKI

[4] = target: MN3 (human fecal metagenome (organism not identified)); test: SEC; HiPrep 26/60 HR Sephacryl S-200, 150 mM NaCl, 20 mM Tris pH 7.5, mostly 1.0 ml/min

Kd [1]: 20.8 µM | Kd [2]: 36.8 µM
Molecule: C#CCN(C(C)=O)[C@@H]1O[C@H](CO)[C@@H](O[C@@H]2O[C@H](CO)[C@H](O)[C@H](O[C@@H]3O[C@H](CO)[C@@H](O[C@@H]4O[C@H](CO)[C@H](O)[C@H](O)[C@H]4O[C@@H]4O[C@@H](C)[C@@H](O)[C@@H](O)[C@@H]4O)[C@H](O)[C@H]3NC(C)=O)[C@H]2O)[C@H](O)[C@H]1O [H antigen type-2 pentaose]

Kd [3]: 239 µM
B1: MU3 (domain or fragment)
chain: QTPKDVTVVEKYQADGTGFSHTINVDWDKQKIVASIDFSNGGDDKDILAMTTGDSFTAFQTSTYRTMHWYCNQTAKQISGFFAKSGAGNNNTGRIDVADCLAKFEISKAEGLKVNGVVKMTPDALEELLTGDPIIIGSGESPKFSNAFYNYIKVVSLDWKETTEPEVTVKDEKTFNEALYMQDQKVADATVVVKG

stoichiometry N [4]: 2
B2: MN3 (domain or fragment)
chain: T2 sequence (Z9ZPU1GRL3 1-298)
modifications: not checked
